Experimental data taken from patent publication US12691112B2, “FGFR tyrosine kinase inhibitors for the treatment of urothelial carcinoma” (Janssen Pharmaceutica NV, priority 2019, dated 2026).
Where “and” joins values, the source holds several entries; their conditions need not be identical. Identical values can stand only once.

Experiments:
[1] = test system: metastatic or surgically unresectable urothelial cancer harboring select FGFR genetic alterations; test: Phase 2 study NCT02365597: tumor response per independent radiographic review committee (BIRC); assay type: in vivo, human
Description: Patients were contacted every 12 weeks for survival assessment.
The study was designed to enroll 180 patients with specified FGFR alterations. Of these, ≥88 were required in the selected regimen. […] Responses were assessed by investigators and an independent radiological review committee. Progression-free survival and overall survival were estimated using Kaplan-Meier product limit method. Data from patients who were progression free and alive or with unknown status were censored at last tumor assessment. Efficacy end points were analysed at primary analysis cut-off.

[2] = test system: QTc interval; conditions: 187 patients with cancer
[3] = Regimen 3, 8 mg continuous (n=99)
[4] = Regimen 3, chemotherapy-refractory patients, N = 87

## COc1cc(OC)cc(N(CCNC(C)C)c2ccc3ncc(-c4cnn(C)c4)nc3c2)c1 [erdafitinib, N-(3,5-dimethoxy-phenyl)-N′-(1-methylethyl)-N-[3-(1-methyl-1H-pyrazol-4-yl)quinoxalin-6-yl]ethane-1,2-diamine]
[1]; [3]
  Complete response rate per independent radiographic review committee: 3 (3.0) %
  Objective response rate per independent radiographic review committee: 34.3% and 34 (34.3) %
  Partial response per independent radiographic review committee: 31 (31.3) %
[1]; [4]
  Complete response (CR), BIRC assessment: 2.3%
  Median DoR (95% CI), BIRC assessment: 5.4 (4.2, 6.9) months
  ORR (95% CI), BIRC assessment: 32.2% and 32.2 (22.4, 42.0) %
  Partial response (PR), BIRC assessment: 29.9%
[1]; Regimen 3, chemotherapy-refractory, FGFR3 fusion, N = 18
  ORR (95% CI), BIRC assessment: 11.1 (0, 25.6) %
[2]
  effect on the QTc interval: no large effect (i.e., >20 ms)
